The target of this test is T1, BRD4 (Homo sapiens, UniProt O60885).
T1 construct: BD1 (BRD4(1), first bromodomain)
The test is described as follows: BROMOscan bromodomain competition binding assay with qPCR readout.

Structures are written as SMILES.

With `COc1cc2c(cc1-c1c(C)nn(C)c1C)ncc1nc(C)n([C@H](C)c3ccccc3)c12` [YL10, (R)-8-methoxy-2-methyl-1-(1-phenylethyl)-7-(1,3,5-trimethyl-1H-pyrazol-4-yl)-1H-imidazo[4,5-c]quinoline], binding was characterised by a dissociation constant (Kd) of 480 nM.

For the origin of these results see article PMC11677465, “Development of a PET Probe Targeting Bromodomain and Extra-Terminal Proteins for In Vitro and In Vivo Visualization” (Pharmaceuticals, 2024).
